For 7 compounds, Activity and zone of inhibition results are on record in ChEMBL document CHEMBL1158888, “New bioactive rosigenin analogues and aromatic polyketide metabolites from the freshwater aquatic fungus Massarina tunicata” (2003).

Assay [1] deals with Bacillus subtilis. The assay is described as follows: Antimicrobial activity against Bacillus subtilis ATCC 6051 at 200 ug/disk by standard disk assay.
Assay [2] relates to Bacillus subtilis. The assay is described as follows: Antimicrobial activity against Bacillus subtilis ATCC 6051 at 200 ug/ml by standard disk assay. It is filed as functional. The conditions noted are these: read-out: IZ.
For a further assay, the system named is Staphylococcus aureus. Put plainly: Antimicrobial activity against Staphylococcus aureus ATCC 29213 at 200 ug/ml by standard disk assay. It is filed as functional. The conditions noted are these: read-out: IZ.

Active and inactive are the calls of the source. The rule behind the calls is not given here.

Turning to `C=C1OC(=O)[C@]2([C@H](C)CCC(=O)[C@@H]2O)[C@H]1O`, in the assay on Bacillus subtilis [1], the outcome was inactive. In the case of `C=C1OC(=O)[C@]2([C@H](C)C=CC(=O)[C@@H]2O)[C@H]1O` [MASSARIGENIN C], the zone of inhibition at 200 µg/mL in the assay with Bacillus subtilis [2] turned out to be 9 mm. Take `C[C@H]1CC(=O)c2c(coc2-c2c(O)ccc3c2OC(C)(C)C=C3)[C@@H]1O` [MASSARININ B]: the zone of inhibition at 200 µg/mL is 23 mm in the assay with Bacillus subtilis [2] and 12 mm in the assay on Staphylococcus aureus. Take `C=C1OC(=O)[C@]2([C@H](C)C=CC(=O)[C@H]2O)[C@H]1O` [MASSARIGENIN D]: the zone of inhibition at 200 µg/mL in the assay with Bacillus subtilis [2] is 14 mm.

For `C=C1OC(=O)[C@]2([C@H](C)C=C[C@H](O)[C@@H]2O)[C@@H]1O` [MASSARIGENIN A], the zone of inhibition at 200 µg/mL in the assay on Bacillus subtilis [2] was 11 mm.

With `C#C[C@H](O)COc1ccc(C(=O)O)cc1`, the zone of inhibition at 200 µg/mL with Bacillus subtilis [2] came out at 15 mm. Consider `COc1c(C)cc(O)c(C(=O)c2c(O)ccc3c2OC(C)(C)C=C3)c1C=O` [MASSARININ A], for which the zone of inhibition at 200 µg/mL in the assay with Bacillus subtilis [2] worked out at 17 mm; with Staphylococcus aureus, 7 mm.
